The record followed here is patent US8008007B2, “S-adenosyl-L-methionine analogs with extended activated groups for transfer by methyltransferases” (RWTH Aachen, priority 2005, dated 2011).

What all share (assay type): biochemical
Assay [1] addresses T1, M.HhaI-Q82A (Haemophilus parahaemolyticus, UniProt P05102, Q82A).
T1 construct: made in house
In words: DNA protection assay with M.HhaI variant Q82A on phage lambda DNA. The note with it: 1.16 μg phage lambda DNA, cofactor 300 μM, 37° C. for 4 h, then R.Hin6I; pH 7.4 (pH 6.0 for cofactor 6). From the text:
(§1) Transfer kinetics of the activated ethyl (—CH2CH3), propyl (—CH2CH2CH3), prop-2-enyl (—CH2CH═CH2), prop-2-ynyl (—CH2C≡CH), but-2-ynyl (—CH2C≡CCH3), pent-2-ynyl (—CH2C≡CCH2CH3) and benzyl group (—CH2C6H5) from cofactors 3-9 by the DNA adenine-N6 methyltransferase M.TaqI and its variant V21 G, the DNA cytosine-C5 methyltransferase M.HhaI and its variant Q82A, the DNA cytosine-N4 methyltransferase M.BcnIB and the DNA cytosine-C5 methyltransferase M.SssI variant Q142A to phage lambda DNA (48502 base pairs) were investigated using a DNA protection assay. This assay makes use of the fact that DNA methyltransferase-catalyzed modifications of nucleobases within the recognition sequences of restriction endonucleases can protect the DNA against fragmentation by these enzymes. […] Unmodified DNA containing 5′-TCGA-3′ recognition sequences is readily fragmentated by R.TaqI. After DNA modification by M.TaqI in the presence of a cofactor with an activated group Z—R modified 5′-TCGA^Z—R-3′ sequences are formed and, as a result, R.TaqI is unable to fragment the modified DNA. Occurrence of fragmentation is then analyzed by agarose gel electrophoresis.
(§2) By varying the amounts of DNA methyltransferase, this assay is used to investigate the enzymatic activities of the different DNA methyltransferases with cofactors 3-9 and compare them to the enzymatic activities with the natural cofactor 1. The minimal amount of DNA methyltransferase needed to fully protect 1 μg of phage lambda DNA against restriction endonuclease fragmentation under the given experimental conditions is defined as one enzyme unit (u).
(§3) Afterwards, the reactions were stopped by heating to 80° C. for 10 min. […] Parallel control experiments were performed with phage lambda DNA in the absence of M.HhaI and in the presence of M.HhaI (278 ng).
The DNA protection assay with the M.HhaI variant Q82A (see Example 2B) was performed as described for the wild type enzyme (Example 3B.1).

Assay [2] deals with T2, M.TaqI (Thermus aquaticus, UniProt P14385).
T2 construct: made in house
The experiment in a line: DNA protection assay with M.TaqI (wild-type) on phage lambda DNA. The note with it: 1 μg phage lambda DNA, cofactor 300 μM, 60° C. for 4 h, then R.TaqI; 1 u = minimal enzyme amount fully protecting 1 μg DNA.
From the text: as §1, §2
(§4) Afterwards a solution (30 μL) containing R.TaqI restriction endonuclease (40 u, MBI Fermentas), bovine serum albumin (0.166 mg/mL) and buffer (16.6 mM Tris hydrochloride, 166 mM sodium chloride, 8.3 mM magnesium chloride, pH 8.0) was added to each dilution and incubation at 60-65° C. was continued for 15 min. Loading buffer (10 μL, 0.25% bromphenol blue, 30% glycerol) was added to each sample, and aliquots (12 μL) were analyzed for the degree of protection by agarose gel (1%) electrophoresis. Parallel control experiments were performed with phage lambda DNA in the absence of M.TaqI and in the presence of M.TaqI (200 ng).
Afterwards a solution (10 μL) containing R.TaqI restriction endonuclease (10 u, MBI Fermentas), bovine serum albumin (0.1 mg/mL) and buffer (33 mM Tris acetate, 66 mM potassium acetate, 10 mM magnesium acetate, pH 7.9) was added to each dilution and incubation was continued at 65° C. for 1 h. […] Parallel control experiments were performed with phage lambda DNA in the absence of M.TaqI and in the presence of M.TaqI (180 ng).

Assay [3] addresses T3, M.HhaI (Haemophilus parahaemolyticus, UniProt P05102).
T3 construct: made in house
In words: DNA protection assay with M.HhaI (wild-type) on phage lambda DNA. The note with it: 1.16 μg phage lambda DNA, cofactor 300 μM, 37° C. for 4 h, then R.Hin6I; pH 7.4 (pH 6.0 for cofactor 6).
From the text: as §1, §2, §3

Assay [4] addresses T4, M.TaqI-V21G (Thermus aquaticus, UniProt P14385, V21G).
T4 construct: made in house
In words: DNA protection assay with M.TaqI variant V21G on phage lambda DNA. The note with it: 1 μg phage lambda DNA, cofactor 300 μM, 60° C. for 4 h, then R.TaqI.
From the text: as §1, §2, §4
Therefore, the codon for V21 was changed to a codon for glycine by standard PCR mutagenesis (Ho et al., (1989) Gene 77, 51-59) and the correct DNA sequence of the complete gene was verified by DNA sequencing. […] The DNA protection assay with the V21G variant was performed as described for the wild type (Example 3A.1).

The target of assay [5] is T5, M.SssI-Q142A (Spiroplasma monobiae, UniProt P15840, Q142A).
T5 construct: made in house
In words: DNA protection assay with M.SssI variant Q142A on phage lambda DNA. The note with it: 1 μg phage lambda DNA, cofactor 300 μM, 37° C. for 4 h, then R.BstUI.
From the text: as §1
By varying the amounts of DNA methyltransferase, this assay is used to investigate the enzymatic activities of the different DNA methyltransferases with cofactors 3-9 and compare them to the enzymatic activities with the natural cofactor 1. […]
Two fold serial dilutions (20 μL) of M.SssI-Q142A (starting with 3300 ng, 73 pmol) in buffer (10 mM Tris hydrochloride, 50 mM sodium chloride, 1 mM dithiothreitol, pH 7.9), phage lambda DNA (1 μg, 31.3 fmol, 3113 5′-CG-3′ recognition sequences, […] recognition sequences, MBI Fermentas) and the natural cofactor 1 (300 μM) or cofactor analogs 5 and 7 (300 μM) were incubated at 37° C. for 4 h. […] Loading buffer (10 μL, 0.25% bromphenol blue, 30% glycerol) was added to each sample, and aliquots (15 μL) were analyzed for the degree of protection by agarose gel (1%) electrophoresis.

The subject of assay [6] is M.BcnIB. In words: DNA protection assay with M.BcnIB (wild-type) on phage lambda DNA. The note with it: 1.10 μg phage lambda DNA, cofactor 300 μM, 37° C. for 4 h, then R.BcnI; pH 7.4 (pH 6.0 for cofactor 6).
From the text: as §1, §2
Afterwards the reactions were stopped by heating to 80° C. for 10 min. A solution (10 μL) containing R.BcnI restriction endonuclease (12 u, MBI Fermentas), bovine serum albumin (0.1 mg/mL) and buffer (33 mM Tris acetate, 66 mM potassium acetate, 26.5 mM magnesium chloride, pH 7.9) was added to each dilution and incubation at 37° C. was continued for 1 h. […] Parallel control experiments were performed with phage lambda DNA in the absence of M.BcnIB and in the presence of M.BcnIB (144 ng).

In assay [7] the target is T2, M.TaqI. In words: Modification of adenine-N6 in duplex oligodeoxynucleotide I.II by M.TaqI, nucleoside analysis by HPLC/ESI-MS. The note with it: 37° C. over night, near-stoichiometric enzyme. The text has this:
Transfer of the activated ethyl (CH2CH3), propyl (CH2CH2CH3), prop-2-enyl (CH2CHCH2), prop-2-ynyl group (CH2CCH), but-2-ynyl (CH2CCCH3), pent-2-ynyl (CH2CCCH2CH3) or benzyl group (CH2C6H5) from cofactors 3-9 by the DNA adenine-N6 methyltransferase M.TaqI, the DNA cytosine-C5 methyltransferase M.HhaI variant Q82A or the DNA cytosine-N4 methyltransferase M.BcnIB to DNA was first investigated using short duplex oligodeoxynucleotides as substrates. After enzymatic transfer the duplex oligodeoxynucleotides were enzymatically fragmented and the resulting modified nucleosides were analyzed by reversed-phase HPLC coupled with ESI-MS.
M.TaqI was denatured by heating to 95° C. for 10 min and removed by centrifugation ([…], 2 min). The modified duplex oligodeoxynucleotides I^Z—R-II were desalted by gel filtration (NAP-5 column, Amersham Biosciences, Freiburg, Germany), eluted with water (1 mL) and lyophilized.
The modified duplex oligodeoxynucleotides I^Z—R-II were dissolved in buffer (100 μL, 10 mM Tris hydrochloride, 10 mM magnesium chloride, 1 mM zinc acetate, pH 7.5) containing Nuclease PI (1500 u, Sigma, Taufkirchen, Germany) and calf intestine alkaline phosphatase (30 u, MBI Fermentas, St. Leon-Rot, Germany) and incubated at 37° C. for 4 h. Nucleosides were analyzed by reversed-phase HPLC (Symmetry-C18 5 μm, 100 Å, 250×4.6 mm, equipped with a Symmetry-C18 5 μm, 100 Å, 20×4.6 mm pre-column, Waters, Eschborn, Germany). Compounds were eluted with acetonitrile (5% for 7 min, followed by linear gradients to 6% in 15 min, to 35% in 8 min and to 70% in 2 min) in triethylammonium acetate buffer (10 mM, pH 7.0) at a flow of 1 mL/min and detected at 254 nm.
For HPLC-coupled ESI-MS measurements compounds were eluted with methanol (0% for 3 min, followed by a linear gradient to 100% in 22 min) in ammonium formate buffer (20 mM, pH 3.5). A post-column mobile phase modification (equal co-flow of 96% methanol, 4% formic acid) was used to enhance the detection efficiency of 2′-deoxyadenosine and its derivatives. Mass spectra were recorded in 200-370 m/z range.
The hemimethylated duplex oligodeoxynucleotide I.II (compare Scheme 5, Example 2A) was produced by mixing equal molar amounts of complementary single-stranded oligodeoxynucleotide I (5′-GCCGCTCGATGCCG-3′) (SEQ. ID NO. 1) and II (5′-CGGCATCGA^MeGCGGC-3′, A^Me=N6-methyl-2′-deoxyadenosine) (SEQ ID NO. 2) in water, heating at 85° C. for 5 min and slow cooling to room temperature. […] The solution was heated to 95° C. for 10 min, supplemented with Proteinase K and incubated at 55° C. for 2 h. Hydrolysis products were removed by gel filtration (G-25 column, Amersham Biosciences).
The obtained solution was treated with buffer ( 1/10 volume, 100 mM Tris hydrochlorid, 100 mM magnesium chloride, 10 mM zinc acetate, pH 7.5) containing Nuclease P1 (1.14 u, Sigma, Taufkirchen, Germany) and calf intestine alkaline phosphatase (18 u, MBI Fermentas), incubated at 42° C. for 4 h and passed through a Microcon YM-3 spin column (Amicon). Nucleosides were analyzed by reversed-phase HPLC (Discovery HS C18 75×2.1 mm, 3 μm, equipped with a Supelguard Discovery HS C18 20×2.1 mm, 5 μm, pre-column, Supelco, Germany) coupled with a mass spectrometric detector (HP 1100 series ESI-MS equipped with single quadruple). Compounds were eluted with methanol (0% for 3 min, followed by linear gradients to 20% in 15 min and to 80% in 2 min) in ammonium formate buffer (20 mM, pH 3.5) at a flow of 0.3 mL/min. For on-line mass spectrometric detection post-column mobile phase modification (equal co-flow of 96% methanol, 4% formic acid and 1 mM sodium hydroxide) was used to enhance the detection efficiency of 2′-deoxyadenosine, 2′-deoxycytidine and their derivatives. Mass spectra were recorded in 50-600 m/z range.

Molecules are shown by their SMILES.

T2 sequence (P14385 whole entry): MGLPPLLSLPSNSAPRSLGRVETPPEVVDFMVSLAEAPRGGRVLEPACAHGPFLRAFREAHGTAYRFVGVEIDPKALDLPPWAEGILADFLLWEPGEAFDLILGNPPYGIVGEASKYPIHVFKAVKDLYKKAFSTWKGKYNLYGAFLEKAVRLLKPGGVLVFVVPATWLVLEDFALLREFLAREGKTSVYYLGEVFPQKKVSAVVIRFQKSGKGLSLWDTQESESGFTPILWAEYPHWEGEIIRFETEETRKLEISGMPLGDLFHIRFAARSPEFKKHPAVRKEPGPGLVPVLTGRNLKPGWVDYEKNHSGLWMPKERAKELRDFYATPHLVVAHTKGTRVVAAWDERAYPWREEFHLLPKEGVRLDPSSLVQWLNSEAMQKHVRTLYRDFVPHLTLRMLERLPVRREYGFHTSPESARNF
T4 sequence (P14385 whole entry V21G): as the sequence (P14385 whole entry) above, with V21G counted along it
T1 sequence (P05102 whole entry Q82A): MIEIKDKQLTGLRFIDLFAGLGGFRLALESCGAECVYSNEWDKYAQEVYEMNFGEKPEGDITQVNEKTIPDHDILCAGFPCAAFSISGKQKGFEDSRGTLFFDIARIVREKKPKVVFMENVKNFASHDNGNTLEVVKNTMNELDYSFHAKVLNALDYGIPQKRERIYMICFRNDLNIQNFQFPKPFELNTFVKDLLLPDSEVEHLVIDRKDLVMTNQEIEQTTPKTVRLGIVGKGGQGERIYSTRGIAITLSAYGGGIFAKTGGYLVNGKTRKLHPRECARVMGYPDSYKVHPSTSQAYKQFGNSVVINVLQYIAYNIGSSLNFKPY
T5 sequence (P15840 whole entry Q142A): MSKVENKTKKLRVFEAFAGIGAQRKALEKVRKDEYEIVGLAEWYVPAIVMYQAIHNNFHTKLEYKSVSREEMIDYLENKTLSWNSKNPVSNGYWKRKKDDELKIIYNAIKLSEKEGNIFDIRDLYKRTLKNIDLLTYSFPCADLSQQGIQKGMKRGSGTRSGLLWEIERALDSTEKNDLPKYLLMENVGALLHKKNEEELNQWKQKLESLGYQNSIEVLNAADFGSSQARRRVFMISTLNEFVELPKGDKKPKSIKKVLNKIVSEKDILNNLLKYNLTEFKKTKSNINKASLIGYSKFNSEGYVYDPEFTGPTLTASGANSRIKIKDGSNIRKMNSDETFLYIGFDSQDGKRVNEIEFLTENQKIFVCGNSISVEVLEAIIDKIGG
T3 sequence (P05102 whole entry): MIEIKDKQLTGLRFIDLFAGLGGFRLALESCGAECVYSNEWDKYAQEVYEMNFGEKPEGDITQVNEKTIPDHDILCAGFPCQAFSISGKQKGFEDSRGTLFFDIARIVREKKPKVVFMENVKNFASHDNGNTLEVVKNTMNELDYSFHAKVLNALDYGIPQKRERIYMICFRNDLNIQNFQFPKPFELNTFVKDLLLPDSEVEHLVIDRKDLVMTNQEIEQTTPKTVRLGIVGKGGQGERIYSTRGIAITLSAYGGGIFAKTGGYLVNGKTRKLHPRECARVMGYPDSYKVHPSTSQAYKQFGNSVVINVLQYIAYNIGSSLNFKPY

As for `C[S+](CCC(N)C(=O)O)CC1OC(n2cnc3c(N)ncnc32)C(O)C1O` (stereo not drawn) [Cofactor 1], in assay [1], the “specific activity of M.HhaI-Q82A with the cofactor” value is reported as 115 u/μg. In addition, the “specific activity of M.TaqI with the cofactor” value in assay [2] came to 40960 u/μg. Moreover, in assay [3], the “specific activity of M.HhaI with the cofactor” value stood at 460 u/μg. In addition, the “specific activity of M.TaqI-V21G with the cofactor” value in assay [4] turned out to be 320 u/μg. In assay [5], the “specific activity of M.SssI-Q142A with the cofactor” value came to 20 u/μg. Also, the “specific activity of M.BcnIB with the cofactor” value in assay [6] is on record as 444 u/μg.

On to `Nc1ncnc2c1ncn2C1OC(C[S+](CCC(N)C(=O)O)Cc2ccccc2)C(O)C1O` (mixture of isomers) [Cofactor 9], for which the “specific activity of M.TaqI with the cofactor” value in assay [2] was found to be 640 u/μg. The “cofactor function for M.TaqI (transfer of group Z-R to adenine-N6)” value in assay [7] is “functions as a cofactor”. Besides, the “specific activity of M.TaqI-V21G with the cofactor” value in assay [4] is reported as 2560 u/μg.
